Experimental findings from patent US20260034079A1, “PHARMACEUTICAL COMPOSITION CONTAINING HYDROXYUREA FOR USE IN THE TREATMENT OF SEVERE CHRONIC ANEMIA” (THERAVIA, priority 2019, published 2026) are described below.

The subject of this experiment is sickle cell patients with severe chronic anaemia. Nature of the experiment: Clinical trial: hematological parameters during treatment with Siklos in HU-naive sickle cell patients with severe chronic anaemia. It counts as in vivo, human. The method, then: This study was conducted with a pharmaceutical composition identical to that of Siklos.
The dose of hydroxycarbamide is comprised from 5 to 30 mg/kg/day.
The results of the evaluation of the hematological parameters of the patients are recorded in the table below.

Setting [1] is: 12 months after the start of the treatment, p<0.001.

Consider `NC(=O)NO` [hydroxycarbamide, hydroxyurea], for which the “Haemoglobin, value after initiation of the treatment” value (12 months after initiation of Siklos (between 10 and 14 months), 41 patients, base value 7.16 ± 1.06, 5 to 30 mg/kg/day) amounted to 7.89 ± 1.11 g/dL. For the same compound, under “12 months after initiation of Siklos (between 10 and 14 months), 41 patients, p 0.001”, the “Variation of the haemoglobin, change with respect to the base value” stood at 0.73 ± 1.30 g/dL. Under setting [1], the “Mean blood volume, change” value is “+10.82±11.42” and the “Number of reticulocytes, change” value is reported as −91.5±115.6. Also, the “Absolute number of neutrophil” value (after the start of the treatment, indicating adequate compliance) is “decreased”. In addition, the “Evolution of the fetal haemoglobin, change with respect to the base value” (at least 6 months after initiation of Siklos (between 5 and 14 months), 23 patients, p <0.001) came out at 6.37±6.38%. Where the note is “at least 6 months after initiation of Siklos (between 5 and 14 months), 55 patients, p <0.001”, the “Variation of the haemoglobin, change with respect to the base value” came out at 0.65 ± 1.24 g/dL.
